#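 Cultured in 96-well plates, cells were exposed to test compound for 48 hours across five concentrations. Definition used: TGI = concentration required for complete inhibition of growth.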
# Legend:
# Assay in all cases: growth of human tumour cells (NCI), 48 h
# 786-0 renal = system: 786-0 renal
# A498 renal = system: A498 renal
# A549 NSCLC = system: A549 NSCLC
# ACHN renal = system: ACHN renal
# CAKI-1 renal = system: CAKI-1 renal
# CCRF-CEM leukemia = system: CCRF-CEM leukemia
# COLO 205 colon = system: COLO 205 colon
# DLD-1 colon = system: DLD-1 colon
# DMS 114 small cell lung = system: DMS 114 small cell lung
# DMS 273 small cell lung = system: DMS 273 small cell lung
# EKVX NSCLC = system: EKVX NSCLC
# HCC-2998 colon = system: HCC-2998 colon
# HCT-116 colon = system: HCT-116 colon
# HCT-15 colon = system: HCT-15 colon
# HL-60(TB) leukemia = system: HL-60(TB) leukemia
# HOP-18 NSCLC = system: HOP-18 NSCLC
# HOP-62 NSCLC = system: HOP-62 NSCLC
# HOP-92 NSCLC = system: HOP-92 NSCLC
# HT29 colon = system: HT29 colon
# IGROV1 ovarian = system: IGROV1 ovarian
# K-562 leukemia = system: K-562 leukemia
# KM12 colon = system: KM12 colon
# KM20L2 colon = system: KM20L2 colon
# LOX IMVI melanoma = system: LOX IMVI melanoma
# LXFL 529 NSCLC = system: LXFL 529 NSCLC
# M14 melanoma = system: M14 melanoma
# M19-MEL melanoma = system: M19-MEL melanoma
# MALME-3M melanoma = system: MALME-3M melanoma
# MOLT-4 leukemia = system: MOLT-4 leukemia
# NCI-H226 lung = system: NCI-H226 lung
# NCI-H23 lung = system: NCI-H23 lung
# NCI-H460 lung = system: NCI-H460 lung
# NCI-H522 lung = system: NCI-H522 lung
# OVCAR-3 ovarian = system: OVCAR-3 ovarian
# OVCAR-4 ovarian = system: OVCAR-4 ovarian
# OVCAR-5 ovarian = system: OVCAR-5 ovarian
# OVCAR-8 ovarian = system: OVCAR-8 ovarian
# RPMI-8226 leukemia = system: RPMI-8226 leukemia
# RXF 393 renal = system: RXF 393 renal
# RXF-631 renal = system: RXF-631 renal
# SF-268 CNS = system: SF-268 CNS
# SF-295 CNS = system: SF-295 CNS
# SF-539 CNS = system: SF-539 CNS
# SK-MEL-2 melanoma = system: SK-MEL-2 melanoma
# SK-MEL-28 melanoma = system: SK-MEL-28 melanoma
# SK-MEL-5 melanoma = system: SK-MEL-5 melanoma
# SK-OV-3 ovarian = system: SK-OV-3 ovarian
# SN12C renal = system: SN12C renal
# SNB-19 CNS = system: SNB-19 CNS
# SNB-75 CNS = system: SNB-75 CNS
# SNB-78 CNS = system: SNB-78 CNS
# SR leukemia = system: SR leukemia
# TK-10 renal = system: TK-10 renal
# U251 CNS = system: U251 CNS
# UACC-257 melanoma = system: UACC-257 melanoma
# UACC-62 melanoma = system: UACC-62 melanoma
# UO-31 renal = system: UO-31 renal
# XF 498 CNS = system: XF 498 CNS
# SW-620 colon = system: SW-620 colon
compound,measurement,setting,value
CCOC(OCC)C(CC)[Se]c1ccccc1 (configuration not stated),TGI,786-0 renal,> 100 µM
same,TGI,A498 renal,> 100 µM
same,TGI,A549 NSCLC,> 100 µM
same,TGI,ACHN renal,> 100 µM
same,TGI,CAKI-1 renal,> 100 µM
same,TGI,CCRF-CEM leukemia,> 100 µM
same,TGI,COLO 205 colon,> 100 µM
same,TGI,DLD-1 colon,> 100 µM
same,TGI,DMS 114 small cell lung,8.89 µM
same,TGI,DMS 273 small cell lung,28.4 µM
same,TGI,EKVX NSCLC,> 100 µM
same,TGI,HCC-2998 colon,> 100 µM
same,TGI,HCT-116 colon,> 100 µM
same,TGI,HCT-15 colon,35 µM
same,TGI,HL-60(TB) leukemia,19 µM
same,TGI,HOP-18 NSCLC,> 100 µM
same,TGI,HOP-62 NSCLC,> 100 µM
same,TGI,HOP-92 NSCLC,> 100 µM
same,TGI,HT29 colon,> 100 µM
same,TGI,IGROV1 ovarian,> 100 µM
same,TGI,K-562 leukemia,> 100 µM
same,TGI,KM12 colon,> 100 µM
same,TGI,KM20L2 colon,38.2 µM
same,TGI,LOX IMVI melanoma,21.6 µM
same,TGI,LXFL 529 NSCLC,> 100 µM
same,TGI,M14 melanoma,93.7 µM
same,TGI,M19-MEL melanoma,> 100 µM
same,TGI,MALME-3M melanoma,> 100 µM
same,TGI,MOLT-4 leukemia,> 100 µM
same,TGI,NCI-H226 lung,> 100 µM
same,TGI,NCI-H23 lung,73.9 µM
same,TGI,NCI-H460 lung,> 100 µM
same,TGI,NCI-H522 lung,46.2 µM
same,TGI,OVCAR-3 ovarian,> 100 µM
same,TGI,OVCAR-4 ovarian,> 100 µM
same,TGI,OVCAR-5 ovarian,> 100 µM
same,TGI,OVCAR-8 ovarian,> 100 µM
same,TGI,RPMI-8226 leukemia,57.5 µM
same,TGI,RXF 393 renal,> 100 µM
same,TGI,RXF-631 renal,> 100 µM
same,TGI,SF-268 CNS,> 100 µM
same,TGI,SF-295 CNS,> 100 µM
same,TGI,SF-539 CNS,> 100 µM
same,TGI,SK-MEL-2 melanoma,> 100 µM
same,TGI,SK-MEL-28 melanoma,> 100 µM
same,TGI,SK-MEL-5 melanoma,> 100 µM
same,TGI,SK-OV-3 ovarian,> 100 µM
same,TGI,SN12C renal,> 100 µM
same,TGI,SNB-19 CNS,> 100 µM
same,TGI,SNB-75 CNS,> 100 µM
same,TGI,SNB-78 CNS,> 100 µM
same,TGI,SR leukemia,47.7 µM
same,TGI,TK-10 renal,> 100 µM
same,TGI,U251 CNS,> 100 µM
same,TGI,UACC-257 melanoma,> 100 µM
same,TGI,UACC-62 melanoma,> 100 µM
same,TGI,UO-31 renal,> 100 µM
same,TGI,XF 498 CNS,> 100 µM
O=C(/C=C/c1ccccc1O)c1cccc2ccccc12,TGI,786-0 renal,> 100 µM
same,TGI,A498 renal,> 100 µM
same,TGI,A549 NSCLC,> 100 µM
same,TGI,ACHN renal,> 100 µM
same,TGI,CAKI-1 renal,> 100 µM
same,TGI,CCRF-CEM leukemia,54 µM
same,TGI,COLO 205 colon,> 68.6 µM
same,TGI,DLD-1 colon,> 100 µM
same,TGI,DMS 114 small cell lung,> 92.2 µM
same,TGI,DMS 273 small cell lung,> 100 µM
same,TGI,EKVX NSCLC,> 100 µM
same,TGI,HCC-2998 colon,> 100 µM
same,TGI,HCT-116 colon,> 69.7 µM
same,TGI,HCT-15 colon,> 58.4 µM
same,TGI,HL-60(TB) leukemia,> 80.8 µM
same,TGI,HOP-18 NSCLC,> 100 µM
same,TGI,HOP-62 NSCLC,> 100 µM
same,TGI,HOP-92 NSCLC,> 100 µM
same,TGI,HT29 colon,> 100 µM
same,TGI,IGROV1 ovarian,> 100 µM
same,TGI,K-562 leukemia,> 100 µM
same,TGI,KM12 colon,> 100 µM
same,TGI,KM20L2 colon,> 100 µM
same,TGI,LOX IMVI melanoma,98.6 µM
same,TGI,LXFL 529 NSCLC,> 100 µM
same,TGI,M14 melanoma,> 100 µM
same,TGI,M19-MEL melanoma,> 100 µM
same,TGI,MALME-3M melanoma,> 100 µM
same,TGI,MOLT-4 leukemia,> 83.7 µM
same,TGI,NCI-H226 lung,> 100 µM
same,TGI,NCI-H23 lung,> 100 µM
same,TGI,NCI-H460 lung,> 100 µM
same,TGI,NCI-H522 lung,> 100 µM
same,TGI,OVCAR-3 ovarian,> 100 µM
same,TGI,OVCAR-4 ovarian,> 100 µM
same,TGI,OVCAR-5 ovarian,> 100 µM
same,TGI,OVCAR-8 ovarian,> 100 µM
same,TGI,RPMI-8226 leukemia,76.6 µM
same,TGI,RXF 393 renal,> 88.9 µM
same,TGI,RXF-631 renal,> 100 µM
same,TGI,SF-268 CNS,> 100 µM
same,TGI,SF-295 CNS,> 100 µM
same,TGI,SF-539 CNS,> 100 µM
same,TGI,SK-MEL-2 melanoma,> 100 µM
same,TGI,SK-MEL-28 melanoma,> 100 µM
same,TGI,SK-MEL-5 melanoma,> 100 µM
same,TGI,SK-OV-3 ovarian,> 100 µM
same,TGI,SN12C renal,> 100 µM
same,TGI,SNB-19 CNS,> 100 µM
same,TGI,SNB-75 CNS,> 100 µM
same,TGI,SNB-78 CNS,> 100 µM
same,TGI,SR leukemia,> 100 µM
same,TGI,SW-620 colon,> 46.9 µM
same,TGI,TK-10 renal,> 100 µM
same,TGI,U251 CNS,> 66.4 µM
same,TGI,UACC-257 melanoma,> 100 µM
same,TGI,UACC-62 melanoma,> 100 µM
same,TGI,UO-31 renal,> 100 µM
same,TGI,XF 498 CNS,> 100 µM
CC(O)C(NC(=O)c1ccccc1)C(=O)N(Cc1ccccc1)Cc1ccccc1 (configuration not stated),TGI,786-0 renal,> 100 µM
same,TGI,A498 renal,> 100 µM
same,TGI,A549 NSCLC,> 100 µM
same,TGI,ACHN renal,> 100 µM
same,TGI,CAKI-1 renal,49.9 µM
same,TGI,CCRF-CEM leukemia,> 100 µM
same,TGI,COLO 205 colon,> 100 µM
same,TGI,DLD-1 colon,> 100 µM
same,TGI,DMS 114 small cell lung,> 100 µM
same,TGI,DMS 273 small cell lung,> 100 µM
same,TGI,EKVX NSCLC,> 100 µM
same,TGI,HCC-2998 colon,> 100 µM
same,TGI,HCT-15 colon,> 100 µM
same,TGI,HL-60(TB) leukemia,> 100 µM
same,TGI,HOP-18 NSCLC,> 100 µM
same,TGI,HOP-62 NSCLC,> 100 µM
same,TGI,HOP-92 NSCLC,> 100 µM
same,TGI,IGROV1 ovarian,> 100 µM
same,TGI,K-562 leukemia,> 100 µM
same,TGI,KM12 colon,> 100 µM
same,TGI,KM20L2 colon,> 100 µM
same,TGI,LOX IMVI melanoma,> 100 µM
same,TGI,LXFL 529 NSCLC,> 100 µM
same,TGI,M14 melanoma,> 100 µM
same,TGI,M19-MEL melanoma,> 100 µM
same,TGI,MALME-3M melanoma,> 100 µM
same,TGI,MOLT-4 leukemia,> 100 µM
same,TGI,NCI-H226 lung,> 100 µM
same,TGI,NCI-H23 lung,> 100 µM
same,TGI,NCI-H460 lung,> 100 µM
same,TGI,NCI-H522 lung,26.5 µM
same,TGI,OVCAR-3 ovarian,> 100 µM
same,TGI,OVCAR-4 ovarian,> 100 µM
same,TGI,OVCAR-5 ovarian,> 100 µM
same,TGI,OVCAR-8 ovarian,> 100 µM
same,TGI,RPMI-8226 leukemia,> 100 µM
same,TGI,RXF-631 renal,> 100 µM
same,TGI,SF-268 CNS,> 100 µM
same,TGI,SF-295 CNS,> 100 µM
same,TGI,SF-539 CNS,> 100 µM
same,TGI,SK-MEL-2 melanoma,> 100 µM
same,TGI,SK-MEL-28 melanoma,> 100 µM
same,TGI,SK-MEL-5 melanoma,> 100 µM
same,TGI,SK-OV-3 ovarian,> 100 µM
same,TGI,SN12C renal,> 100 µM
same,TGI,SNB-19 CNS,> 100 µM
same,TGI,SNB-75 CNS,> 100 µM
same,TGI,SNB-78 CNS,> 100 µM
same,TGI,SW-620 colon,> 100 µM
same,TGI,TK-10 renal,> 100 µM
same,TGI,U251 CNS,> 100 µM
same,TGI,UACC-257 melanoma,> 100 µM
same,TGI,UACC-62 melanoma,> 100 µM
same,TGI,UO-31 renal,> 100 µM
same,TGI,XF 498 CNS,> 100 µM
